In ChEMBL document CHEMBL3632477 (2015):

Target: Glucagon-like peptide 1 receptor (Homo sapiens, UniProt P43220)
Experiment: Agonist activity at human GLP-1R expressed in CHO-K1 cells assessed as increase in cAMP level incubated for 30 mins
Type: functional, cell-based

Glucagon-like peptide 1 receptor, sequence (P43220 whole entry): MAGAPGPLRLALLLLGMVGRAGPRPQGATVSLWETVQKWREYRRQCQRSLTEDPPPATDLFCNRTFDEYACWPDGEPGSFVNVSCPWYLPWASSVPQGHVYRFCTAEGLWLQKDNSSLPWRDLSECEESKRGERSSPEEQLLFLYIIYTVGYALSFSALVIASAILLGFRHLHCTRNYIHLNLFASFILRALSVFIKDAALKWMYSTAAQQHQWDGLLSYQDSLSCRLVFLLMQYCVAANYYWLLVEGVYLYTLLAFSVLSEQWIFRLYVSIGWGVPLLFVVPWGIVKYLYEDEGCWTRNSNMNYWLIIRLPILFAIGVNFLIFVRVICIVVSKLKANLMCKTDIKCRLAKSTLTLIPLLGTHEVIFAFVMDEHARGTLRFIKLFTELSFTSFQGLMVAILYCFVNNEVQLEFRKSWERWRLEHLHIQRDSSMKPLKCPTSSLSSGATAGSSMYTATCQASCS

`CC[C@H](C)[C@@H]1NC(=O)[C@H](CCC(=O)O)NC(=O)[C@@H]2CCCN2C(=O)[C@H](Cc2cnc[nH]2)NC(=O)[C@H](CC(=O)O)NC(=O)[C@H](Cc2ccc(O)cc2)NC(=O)[C@H](CC(N)=O)NC(=O)[C@@H]2CSSC[C@@H]3NC(=O)CNC(=O)CNC(=O)CNC(=O)[C@H](C)NC(=O)[C@H](C)NC(=O)CNC(=O)CNC(=O)[C@H](CSSC[C@H](NC3=O)C(=O)N[C@@H](CO)C(=O)N[C@@H](CC(=O)O)C(=O)N3CCC[C@H]3C(=O)N[C@@H](CCCNC(=N)N)C(=O)N2)NC1=O` gave an EC50 of 140 pM.
